The text below walks through data of patent publication US9701670B2, “Pyrazolyl-ureas as kinase inhibitors” (RESPIVERT LIMITED, priority 2013, dated 2017).

The target of data set [1] is p38 MAPKα isoform (MAPK14) (Homo sapiens (Human), UniProt Q16539). As to the kind of experiment: p38 MAPKα enzyme inhibition (FRET, Z-LYTE), Method 1. Particulars: Method 1 (Table 4a1). The format is biochemical.
For data set [2], the system named is Differentiated U937 cells. As to the kind of experiment: (l) Cell viability: MTT assay. The format is cell-based, human. As to conditions: 1 μg/mL. A digest of the protocol:
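Differentiated U937 cells were exposed to compound at 1 or 10 μg/mL either 4 h in 5% FCS RPMI1640 or 24 h in 10% FCS RPMI1640, then given MTT for 1 h, DMSO-solubilised and read at 550 nm. Percent viability loss versus 0.5% DMSO vehicle; apparent gains appear negative.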

Each structure is given as a SMILES string. Where only a bound is given, the exact number is not on record here.

As a reminder, the IC50 is the point on the concentration scale where inhibition reaches its midpoint.

Sequence of p38 MAPKα isoform (MAPK14) (Q16539 whole entry, canonical isoform): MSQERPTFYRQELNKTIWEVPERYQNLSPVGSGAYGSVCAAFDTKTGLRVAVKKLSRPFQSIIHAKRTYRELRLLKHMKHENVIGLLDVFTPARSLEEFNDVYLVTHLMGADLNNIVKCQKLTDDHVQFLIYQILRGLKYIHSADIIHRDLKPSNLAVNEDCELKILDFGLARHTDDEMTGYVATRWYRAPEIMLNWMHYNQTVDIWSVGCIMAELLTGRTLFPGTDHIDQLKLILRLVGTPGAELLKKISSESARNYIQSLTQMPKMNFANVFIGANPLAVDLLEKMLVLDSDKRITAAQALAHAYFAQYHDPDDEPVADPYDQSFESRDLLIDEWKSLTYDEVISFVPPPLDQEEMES

Regarding `COc1cc(Nc2nccc(Oc3ccc(NC(=O)Nc4cc(C(C)C)nn4-c4ccc(C)cc4)c4ccccc34)n2)cc(C(=O)N2CCN(C)CC2)c1` [Example 69, 1-(3-isopropyl-1-(p-tolyl)-1H-pyrazol-5-yl)-3-(4-((2-((3-methoxy-5-(4-methylpiperazine-1-carbonyl)phenyl)amino)pyrimidin-4-yl)oxy)naphthalen-1-yl)urea], the IC50 in data set [1] amounted to 2 nM. Also, in data set [2], the “Cell viability at time point in d-U937 cells 4 h” value is “−ve (−ve and +ve indicate that the value is below and above respectively, the no significant effect threshold, defined as 30% inhibition at 1 μg/mL at the time point indicated.)”; the “Cell viability at time point in d-U937 cells 24 h” value is “−ve (−ve and +ve indicate that the value is below and above respectively, the no significant effect threshold, defined as 30% inhibition at 1 μg/mL at the time point indicated.)”.
In turn, `COCCNC(=O)c1cc(Nc2nccc(Oc3ccc(NC(=O)Nc4cc(C(C)(C)C)nn4-c4ccc(C)cc4)c4ccccc34)n2)cc(OC)c1` [Example 67, 3-((4-((4-(3-(3-(tert-butyl)-1-(p-tolyl)-1H-pyrazol-5-yl)ureido)naphthalen-1-yl)oxy)pyrimidin-2-yl)amino)-5-methoxy-N-(2-methoxyethyl)benzamide] showed an IC50 in data set [1] of 24 nM. Besides, in data set [2], the “Cell viability at time point in d-U937 cells 4 h” value was “−ve (−ve and +ve indicate that the value is below and above respectively, the no significant effect threshold, defined as 30% inhibition at 1 μg/mL at the time point indicated.)”; the “Cell viability at time point in d-U937 cells 24 h” value is “−ve (−ve and +ve indicate that the value is below and above respectively, the no significant effect threshold, defined as 30% inhibition at 1 μg/mL at the time point indicated.)”.
Turning to `COc1ccc(-n2nc(C(C)C)cc2NC(=O)Nc2ccc(Oc3ccnc(Nc4cc(Cl)cc(C(=O)NCCN5CCOCC5)c4)n3)c3ccccc23)cc1` [Example 61, 3-chloro-5-((4-((4-(3-(3-isopropyl-1-(4-methoxyphenyl)-1H-pyrazol-5-yl)ureido)naphthalen-1-yl)oxy)pyrimidin-2-yl)amino)-N-(2-morpholinoethyl)benzamide], the IC50 in data set [1] stood at 20 nM. Moreover, in data set [2], the “Cell viability at time point in d-U937 cells 4 h” value was “−ve (−ve and +ve indicate that the value is below and above respectively, the no significant effect threshold, defined as 30% inhibition at 1 μg/mL at the time point indicated.)”; the “Cell viability at time point in d-U937 cells 24 h” value was “−ve (−ve and +ve indicate that the value is below and above respectively, the no significant effect threshold, defined as 30% inhibition at 1 μg/mL at the time point indicated.)”.
`COc1ccc(C(=O)NCCO)cc1Nc1nccc(Oc2ccc(NC(=O)Nc3cc(C(C)C)nn3-c3ccc(C)cc3)c3ccccc23)n1` [Example 32, N-(2-hydroxyethyl)-3-((4-((4-(3-(3-isopropyl-1-(p-tolyl)-1H-pyrazol-5-yl)ureido)naphthalen-1-yl)oxy)pyrimidin-2-yl)amino)-4-methoxybenzamide] gave an IC50 in data set [1] of 1 nM. Besides, in data set [2], the “Cell viability at time point in d-U937 cells 4 h” value is “−ve (−ve and +ve indicate that the value is below and above respectively, the no significant effect threshold, defined as 30% inhibition at 1 μg/mL at the time point indicated.)”; the “Cell viability at time point in d-U937 cells 24 h” value was “−ve (−ve and +ve indicate that the value is below and above respectively, the no significant effect threshold, defined as 30% inhibition at 1 μg/mL at the time point indicated.)”.
With `COc1cc(Nc2nccc(Oc3ccc(NC(=O)Nc4cc(C(C)(C)C)nn4-c4ccc(C)cc4)c4ccccc34)n2)cc(C(=O)NCCN(C)C)c1` [Example 43, 3-((4-((4-(3-(3-(tert-butyl)-1-(p-tolyl)-1H-pyrazol-5-yl)ureido)naphthalen-1-yl)oxy)pyrimidin-2-yl)amino)-N-(2-(dimethylamino)ethyl)-5-methoxybenzamide], 4 nM corresponded to half-maximal inhibition in data set [1] (IC50). Moreover, in data set [2], the “Cell viability at time point in d-U937 cells 4 h” value is “−ve (−ve and +ve indicate that the value is below and above respectively, the no significant effect threshold, defined as 30% inhibition at 1 μg/mL at the time point indicated.)”; the “Cell viability at time point in d-U937 cells 24 h” value is “−ve (−ve and +ve indicate that the value is below and above respectively, the no significant effect threshold, defined as 30% inhibition at 1 μg/mL at the time point indicated.)”.
`COc1ccc(-n2nc(C(C)(C)C)cc2NC(=O)Nc2ccc(Oc3ccnc(Nc4cc(Br)cc(C(N)=O)c4)n3)c3ccccc23)cc1` [Example 42, 3-bromo-5-((4-((4-(3-(3-(tert-butyl)-1-(4-methoxyphenyl)-1H-pyrazol-5-yl)ureido)naphthalen-1-yl)oxy)pyrimidin-2-yl)amino)benzamide] registered an IC50 in data set [1] of 167 nM. Besides, in data set [2], the “Cell viability at time point in d-U937 cells 4 h” value is “−ve (−ve and +ve indicate that the value is below and above respectively, the no significant effect threshold, defined as 30% inhibition at 1 μg/mL at the time point indicated.)”; the “Cell viability at time point in d-U937 cells 24 h” value is “−ve (−ve and +ve indicate that the value is below and above respectively, the no significant effect threshold, defined as 30% inhibition at 1 μg/mL at the time point indicated.)”.
Regarding `Cc1ccc(-n2nc(C(C)(C)C)cc2NC(=O)Nc2ccc(Oc3ccnc(Nc4cc(C)cc(C(N)=O)c4)n3)c3ccccc23)cc1` [Example 40, 3-((4-((4-(3-(3-(tert-butyl)-1-(p-tolyl)-1H-pyrazol-5-yl)ureido)naphthalen-1-yl)oxy)pyrimidin-2-yl)amino)-5-methylbenzamide], in data set [1], half-maximal inhibition (IC50) was put at 52 nM. Besides, in data set [2], the “Cell viability at time point in d-U937 cells 4 h” value was “−ve (−ve and +ve indicate that the value is below and above respectively, the no significant effect threshold, defined as 30% inhibition at 1 μg/mL at the time point indicated.)”; the “Cell viability at time point in d-U937 cells 24 h” value is “−ve (−ve and +ve indicate that the value is below and above respectively, the no significant effect threshold, defined as 30% inhibition at 1 μg/mL at the time point indicated.)”.
In data set [1], `Cc1ccc(-n2nc(C(C)(C)C)cc2NC(=O)Nc2ccc(Oc3ccnc(Nc4cccc(C(N)=O)c4)n3)c3ccccc23)cc1` [Example 2, 3-((4-((4-(3-(3-(tert-Butyl)-1-(p-tolyl)-1H-pyrazol-5-yl)ureido)naphthalen-1-yl)oxy)pyrimidin-2-yl)amino)benzamide] gave an IC50 of 27 nM. Moreover, in data set [2], the “Cell viability at time point in d-U937 cells 4 h” value was “−ve (−ve and +ve indicate that the value is below and above respectively, the no significant effect threshold, defined as 30% inhibition at 1 μg/mL at the time point indicated.)”; the “Cell viability at time point in d-U937 cells 24 h” value is “−ve (−ve and +ve indicate that the value is below and above respectively, the no significant effect threshold, defined as 30% inhibition at 1 μg/mL at the time point indicated.)”.
Consider `COc1cc(Nc2nccc(Oc3ccc(NC(=O)Nc4cc(C(C)(C)C)nn4-c4ccc(C)cc4)c4ccccc34)n2)cc(C(=O)NCCN2CCOCC2)c1` [Example 52, 3-((4-((4-(3-(3-(tert-butyl)-1-(p-tolyl)-1H-pyrazol-5-yl)ureido)naphthalen-1-yl)oxy)pyrimidin-2-yl)amino)-5-methoxy-N-(2-morpholinoethyl)benzamide], for which the IC50 in data set [1] was found to be 13 nM. In data set [2], the “Cell viability at time point in d-U937 cells 4 h” value was “−ve (−ve and +ve indicate that the value is below and above respectively, the no significant effect threshold, defined as 30% inhibition at 1 μg/mL at the time point indicated.)”; the “Cell viability at time point in d-U937 cells 24 h” value was “−ve (−ve and +ve indicate that the value is below and above respectively, the no significant effect threshold, defined as 30% inhibition at 1 μg/mL at the time point indicated.)”.
`Cc1csc(-n2nc(C(C)(C)C)cc2NC(=O)Nc2ccc(Oc3ccnc(Nc4cccc(C(=O)NCCN5CCOCC5)c4)n3)c3ccccc23)c1` [Example 24, 3-((4-((4-(3-(3-(tert-butyl)-1-(4-methylthiophen-2-yl)-1H-pyrazol-5-yl)ureido)naphthalen-1-yl)oxy)pyrimidin-2-yl)amino)-N-(2-morpholinoethyl)benzamide] registered an IC50 in data set [1] of 11 nM. In addition, in data set [2], the “Cell viability at time point in d-U937 cells 4 h” value is “−ve (−ve and +ve indicate that the value is below and above respectively, the no significant effect threshold, defined as 30% inhibition at 1 μg/mL at the time point indicated.)”; the “Cell viability at time point in d-U937 cells 24 h” value was “−ve (−ve and +ve indicate that the value is below and above respectively, the no significant effect threshold, defined as 30% inhibition at 1 μg/mL at the time point indicated.)”.
In turn, `COc1ccc(-n2nc(C3(C)COC3)cc2NC(=O)Nc2ccc(Oc3ccnc(Nc4cccc(C(=O)NCCN5CCOCC5)c4)n3)c3ccccc23)cc1` [Example 23, 3-((4-((4-(3-(1-(4-methoxyphenyl)-3-(3-methyloxetan-3-yl)-1H-pyrazol-5-yl)ureido)naphthalen-1-yl)oxy)pyrimidin-2-yl)amino)-N-(2-morpholinoethyl)benzamide] yielded an IC50 in data set [1] of less than 1 nM. Besides, in data set [2], the “Cell viability at time point in d-U937 cells 4 h” value is “−ve (−ve and +ve indicate that the value is below and above respectively, the no significant effect threshold, defined as 30% inhibition at 1 μg/mL at the time point indicated.)”; the “Cell viability at time point in d-U937 cells 24 h” value was “−ve (−ve and +ve indicate that the value is below and above respectively, the no significant effect threshold, defined as 30% inhibition at 1 μg/mL at the time point indicated.)”.
In the case of `Cc1ccc(-n2nc(C(C)(C)C)cc2NC(=O)Nc2ccc(Oc3ccnc(Nc4cc(Br)cc(C(=O)NCCN5CCOCC5)c4)n3)c3ccccc23)cc1` [Example 62, 3-bromo-5-((4-((4-(3-(3-(tert-butyl)-1-(p-tolyl)-1H-pyrazol-5-yl)ureido)naphthalen-1-yl)oxy)pyrimidin-2-yl)amino)-N-(2-morpholinoethyl)benzamide], in data set [1], the IC50 came to 22 nM. Further, in data set [2], the “Cell viability at time point in d-U937 cells 4 h” value was “−ve (−ve and +ve indicate that the value is below and above respectively, the no significant effect threshold, defined as 30% inhibition at 1 μg/mL at the time point indicated.)”; the “Cell viability at time point in d-U937 cells 24 h” value was “+ve (−ve and +ve indicate that the value is below and above respectively, the no significant effect threshold, defined as 30% inhibition at 1 μg/mL at the time point indicated.)”.
